Where two headings read alike, the source gives them in different places.
Experiments:
[1] = test system: fibrin-induced microglia activation; test: Image-based assay of fibrin-induced microglia activation (HTS and dose response); type: cell-based, rat; conditions: Rattus norvegicus, Microglia, read-out: Fibrin % inhibition
primary rat microglia [2] = test: Cell toxicity (dead cells, size <150 μm2) in LPS assay
[3] = test system: LPS-induced microglia activation; test: Image-based assay of LPS-induced microglia activation (HTS and dose response); type: cell-based, rat; conditions: Rattus norvegicus, Microglia, read-out: LPS % inhibition
primary rat microglia [4] = test: Cell toxicity (dead cells, size <150 μm2) in coated fibrin (cFib) assay;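 also: share of dead cells sized under 150 µm2 at 10 µM in fibrin-stimulated microglia HTS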
[5] = test system: fibrin- and LPS-induced microglia activation; test: cells; type: cell-based, rat
[6] = primary microglia HTS, fibrin stimulation, activation = cell size >800 μm2
[7] = primary microglia HTS, LPS stimulation, toxicity = cell size <150 μm2
[8] = 48 h, primary microglia HTS, LPS stimulation, activation = cell size >800 μm2
[9] = primary microglia HTS, fibrin stimulation, toxicity = cell size <150 μm2
[10] = quadrant by fibrin and LPS inhibition in HTS of 1907 compounds
[11] = primary microglia HTS, fibrin stimulation, increased cell size (>800 μm^2) as marker of activation
[12] = primary microglia HTS, LPS stimulation, decreased size (<150 μm^2) as marker of toxicity
[13] = 48 h, primary microglia HTS, LPS stimulation, increased cell size (>800 μm^2) as marker of activation
[14] = primary microglia HTS, fibrin stimulation, decreased size (<150 μm^2) as marker of toxicity
[15] = primary HTS, 10 μM, fibrin-stimulated primary microglia
[16] = primary HTS, 10 μM, LPS assay, dead cells size <150 μm2
[17] = primary HTS, 10 μM, LPS-stimulated primary microglia
[18] = primary HTS, 10 μM, fibrin assay, dead cells size <150 μm2

SMILES	inhibition at 10 µM [1, 6]	LPS % cell toxicity (primary rat microglia [2]; [7])	inhibition at 10 µM [3, 8]	Fibrin % cell toxicity (primary rat microglia [4]; [9])	Quadrant (FIG. 5b) [5, 10]	inhibition at 10 µM [1, 11]	LPS % cell toxicity (primary rat microglia [2]; [12])	inhibition at 10 µM [3, 13]	Fibrin % cell toxicity (primary rat microglia [4]; [14])	further results
O=C(O)c1ccc(S(=O)(=O)N(Cl)Cl)cc1 [Halazone]	-13%	0%	19%	0%	Q4	–	–	–	–	–
CC1(C)O[C@@H]2C[C@H]3[C@@H]4CCC5=CC(=O)CC[C@]5(C)[C@@]4(F)[C@@H](O)C[C@]3(C)[C@]2(C(=O)CCl)O1 [Halcinonide]	–	–	–	–	Q2	103%	2%	95%	8%	–
O=C(c1cccnc1)N1CCOCC1 [Nicopholine]	–	–	–	–	Q4	26%	0%	21%	0%	–
O=C(c1ccccc1)c1ccc2n1CCC2C(=O)O (stereo not drawn) [Ketorolac]	15%	0%	26%	0%	Q4	–	–	–	–	–
NS(=O)(=O)Cc1noc2ccccc12 [Zonisamide]	–	–	–	–	–	–	–	–	–	inhibition at 10 µM ([1]; primary microglia HTS, 10 μM, fibrin-stimulated, cell size >800 μm^2 as marker of activation): -37%; LPS % cell toxicity (primary rat microglia [2]; primary microglia HTS, 10 μM, LPS assay, cell size <150 μm^2 as marker of toxicity): 0%; inhibition at 10 µM ([3]; primary microglia HTS, 10 μM, LPS-stimulated, cell size >800 μm^2 as marker of activation): -12%; Fibrin % cell toxicity (primary rat microglia [4]; primary microglia HTS, 10 μM, fibrin assay, cell size <150 μm^2 as marker of toxicity): 0%; Quadrant (FIG. 5b) ([5]; HTS of 1907 compounds, quadrant by fibrin and LPS inhibition): Q4
CC(C(=O)O)c1ccc(-c2ccccc2)c(F)c1 (stereo not drawn) [Flurbiprofen]	17%	0%	33%	0%	Q4	–	–	–	–	–
CCOC(=O)n1ccn(C)c1=S [Carbimazole]	–	–	–	–	–	–	–	–	–	inhibition at 10 µM [1, 15]: -32%; LPS % cell toxicity (primary rat microglia [2]; [16]): 0%; inhibition at 10 µM [3, 17]: 8%; Fibrin % cell toxicity (primary rat microglia [4]; [18]): 0%; Quadrant (FIG. 5b) ([5]; primary HTS, 10 μM): Q4
CCCCOC(=O)c1ccc(O)cc1 [Butylparaben]	–	–	–	–	–	–	–	–	–	inhibition at 10 µM [1, 15]: -16%; LPS % cell toxicity (primary rat microglia [2]; [16]): 0%; inhibition at 10 µM [3, 17]: 20%; Fibrin % cell toxicity (primary rat microglia [4]; [18]): 1%; Quadrant (FIG. 5b) ([5]; primary HTS, 10 μM): Q4
CC(=O)[C@H]1CC[C@H]2[C@@H]3C[C@H](C)C4=CC(=O)CC[C@]4(C)[C@H]3[C@@H](O)C[C@]12C [Medrysone]	–	–	–	–	Q2	111%	4%	87%	4%	–
c1ccc2c(CC3=NCCN3)cccc2c1 [Naphazoline]	–	–	–	–	Q4	-1%	1%	13%	1%	–
O[C@H]1[C@H](O)[C@@H](O)[C@H](O)[C@@H](O)[C@H]1O [Inositol]	-21%	0%	11%	0%	Q4	–	–	–	–	–
CC(C)(CO)C(O)C(=O)NCCCO (stereo not drawn) [Panthenol]	–	–	–	–	Q4	-32%	0%	6%	1%	–

Source: patent publication US20210330611A1, “THERAPY FOR NEUROLOGICAL DISEASES/DISORDERS” (priority 2020, published 2021)
